Here are results for three molecules from patent EP1826280A2 (priority 1992, dated 1994).

The test system of the assay is vascular smooth muscle cells. The assay can be described thus: 24 hour 3H-leucine protein inhibition and 3H-thymidine DNA synthesis inhibition assays. The format is cell-based. To be noted: 24 hour exposure; for inhibition of DNA synthesis compared with protein synthesis: in the presence of 5% FBS.

Method: The ability of various therapeutic agents to inhibit DNA synthesis and protein synthesis in vascular smooth muscle cells was tested. ^3H-leucine and ^3H-thymidine uptake and cytotoxicity assays were conducted in accordance with the following protocols.
^3H-leucine uptake: Vascular smooth muscle cells at 40,000 cells/ml were seeded in sterile 24 well plates at 1ml/well. The plates were incubated overnight at 37°C, 5% CO2, 95% air in a humidified atmosphere (saturation). Log dilutions of the therapeutic agent of interest were incubated with the vascular smooth muscle cells for 5 minutes or 24 hours. Samples of the therapeutic agents were diluted in DMEM:F-12 media (Whittaker Bioproducts, Walkersville, Maryland) with 5% fetal bovine serum (GBS, Gibco) and 5% Serum Plus® (JRH Biologicals). Following therapeutic agent incubation, the solution was aspirated, and 1ml/well of 0.5 microcurie/ml ^3H-leucine in leucine free DMEM (Dulbecco's Modified Eagle's Medium) with 5% Serum Plus® was added. The plates were re-incubated overnight at 37°C, 5% CO2 in a humidified atmosphere. The cells were visually graded using an inverted microscope using a scoring scale to determine viability and cell number. The 1 to 3 grade is based upon percent of cell viability and number compared to control wells, with 3=100%, 2=70%-100% and 1=0%-70%. A record of this scoring assisted in determining the immediate cytotoxic effect of the therapeutic agents. The media was then aspirated, and the cells were washed twice with cold 5% TCA. 400 microliters of 0.2M KaOH was added per well, and the plates were incubated for two hours at room temperature on a rotating platform. 200 microliters per well of the cell solution was transferred into plastic scintillation vials (Bio-Rad Laboratories), and 4 milliliters of Bio-Safe® II liquid scintillation fluid was added prior to vortexing. Vials were counted on a Beckman LS2600 Liquid scintillation Counter interfaced with Beckman "Data Capture" software for conversion to a Lotus 1-2-3® file and analysis using Lotus 1-2-3®.
^3H-thymidine uptake: Vascular smooth muscle cells were incubated in complete media with 5% FBS (Gibco) overnight at 37°C in a humidified, 5% CO2 environment in sterile 24 well plates. The media was aspirated from the wells and serum free media supplemented with growth factors (DMEM: F-12 basal media supplemented with growth factor cocktail catalog number I1884 which contains insulin (5 micrograms/ml), transferrin (5 micrograms/ml) and sodium selenite (5 nanograms/ml) available from Sigma Chemical, St. Louis, Missouri) was added. Cells were incubated in this media for 24 hours. For a 5 minute therapeutic agent exposure, log dilutions of the therapeutic agent were incubated with the cells in complete media. After 5 minutes and media aspiration, 1 ml/well of 1.0 microcurie/ml ^3H-thymidine dispersed in complete media was added. The 24 hour exposure involved incubation of the cells with 1 ml/well of 1.0 microcurie/ml of ^3H-thymidine dispersed in complete media and log dilutions of the therapeutic agent being tested. In both exposure trials, the cells were then incubated overnight at 37°C in a humidified, 5% CO2 environment. The cells were visually scored for viability and cell number. […] Vials were counted on a Beckman LS2800 Liquid Scintillation counter interfaced with Beckman "Data Capture" software for conversion to a Lotus 1-2-3® file and analysis using Lotus 1-2-3®.

`O=[N+]([O-])OCC(CO[N+](=O)[O-])O[N+](=O)[O-]` [nitroglycerin]: the “therapeutic range (area under the curve of 3H-leucine assay greater than that of 3H-thymidine assay)” value (“therapeutic range” below) was “showed an available therapeutic range” and the “inhibition of DNA synthesis compared with protein synthesis” value was “to a greater extent than they inhibited protein synthesis”.

With `CN[C@@H]1C[C@H]2O[C@@](C)([C@@H]1OC)n1c3ccccc3c3c4c(c5c6ccccc6n2c5c31)C(=O)NC4` [staurosporin], the “therapeutic range” value is “showed an available therapeutic range”.

In the case of `Cc1ccc(C(=O)Nc2ccc(S(=O)(=O)O)c3cc(S(=O)(=O)O)cc(S(=O)(=O)O)c23)cc1NC(=O)c1cccc(NC(=O)Nc2cccc(C(=O)Nc3cc(C(=O)Nc4ccc(S(=O)(=O)O)c5cc(S(=O)(=O)O)cc(S(=O)(=O)O)c45)ccc3C)c2)c1` [suramin], the “therapeutic range” value is reported as “showed an available therapeutic range” and the “inhibition of DNA synthesis compared with protein synthesis” value is “to a greater extent than they inhibited protein synthesis”.
